In PMC9481570, “A small molecule antagonist of SMN disrupts the interaction between SMN and RNAP II” (Nature Communications, 2022):
“And” between values parts separate entries of the source, which are not always exact repeats. Equal entries are not always repeated.

Key:
[1] = system: GEMIN2; assay: AP-MS chemical proteomics, GEMIN2; assay type: binding, human
Protocol: The samples for AP-MS were prepared following pulldown procedure as previously described with minor modifications. Briefly, U2OS cells were lysed in RIPA buffer and the cell lysate was equally divided into two groups: (1) DMSO group (control group): the cell lysate was incubated with 20 μM biotin-labeled compound 1; (2) Cpmd 1 group (sample group): the cell lysate was incubated with 20 μM biotin-labeled compound 1 and 200 μM free compound 1. Each group contains three biological replicates. They were incubated overnight at 4 °C, then 30 μL streptavidin beads (Thermo Fisher, 20353) was added and incubated at 4 °C for 1 h. The beads were then washed with RIPA buffer for 3 times, 10 min/time. […]
Samples were analyzed by nanoLC-MS/MS (nanoRSLC, Thermo Fisher) using an Aurora series (Ion Opticks) reversed phase HPLC column (25 cm length × 75 µm inner diameter) and directly injected to an Orbitrap Eclipse (Thermo Fisher) using a 120 min gradient (mobile phase A = 0.1% formic acid, mobile phase B = 99.9% acetonitrile with 0.1% formic acid; hold 2% B for 5 min, 2–6% B in 0.1 min, 6–25% in 100 min, 25–50% in 15 min) at a flow rate of 350 nL/min. Eluted peptide ions were analyzed using a data-dependent acquisition (DDA) method with resolution settings of 120,000 and 15,000 (at m/z 200) for MS1 and MS2 scans, respectively. […]

[2] = target: T1, proteins displaced from immobilized biotin-Cmpd 1 pulldowns (U2OS cell lysate) (Homo sapiens, UniProt P35606); assay: Affinity-purification and mass spectrometry (AP-MS) chemical proteomics, all proteins; assay type: binding; conditions: GN=COPB2 (P35606);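 on Difference: 200 µM free competitor with 20 µM biotin probe overnight in lysate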
T1 construct: endogenous in cells; host or cells: U2OS
Protocol: (§1) The samples for AP-MS were prepared following pulldown procedure as previously described with minor modifications. Briefly, U2OS cells were lysed in RIPA buffer and the cell lysate was equally divided into two groups: (1) DMSO group (control group): the cell lysate was incubated with 20 μM biotin-labeled compound 1; (2) Cpmd 1 group (sample group): the cell lysate was incubated with 20 μM biotin-labeled compound 1 and 200 μM free compound 1. Each group contains three biological replicates. They were incubated overnight at 4 °C, then 30 μL streptavidin beads (Thermo Fisher, 20353) was added and incubated at 4 °C for 1 h. The beads were then washed with RIPA buffer for 3 times, 10 min/time.
(§2) Beads were rinsed twice with 50 mM TEAB, pH 7.55, before eluting proteins with 25 μL of 5% SDS, 50 mM TEAB, pH 7.55. The sample was then centrifuged at 17,000 × g for 10 min to remove any debris. Proteins were reduced with 20 mM TCEP (Thermo Fisher, 77720) and incubated at 65 °C for 30 min. The sample was cooled to room temperature and 1 μL of 0.5 M iodoacetamide acid was added and allowed to react for 20 min in dark. Phosphoric acid (12%, 2.75 μL) was added to the protein solution, followed by adding 165 μL of binding buffer (90% methanol, 100 mM TEAB, pH 7.1). The resulting solution was added to S-Trap spin column (protifi.com) and passed through the column using a bench top centrifuge (30 s spin at 4000 × g). The spin column was washed with 400 μL of binding buffer and centrifuged. This step was repeated two more times. Then trypsin was added to the protein mixture at a mass ratio of 1:25 in 50 mM TEAB, pH 8.0, and the sample was incubated at 37 °C for 4 h. Peptides were eluted with 80 μL of 50 mM TEAB, followed by 80 μL of 0.2% formic acid, and finally 80 μL of 50% acetonitrile, 0.2% formic acid. The combined peptide solution was then dried in a speed vac and resuspended in 2% acetonitrile, 0.1% formic acid, 97.9% water and placed in an autosampler vial.
(§3) Samples were analyzed by nanoLC-MS/MS (nanoRSLC, Thermo Fisher) using an Aurora series (Ion Opticks) reversed phase HPLC column (25 cm length × 75 µm inner diameter) and directly injected to an Orbitrap Eclipse (Thermo Fisher) using a 120 min gradient (mobile phase A = 0.1% formic acid, mobile phase B = 99.9% acetonitrile with 0.1% formic acid; hold 2% B for 5 min, 2–6% B in 0.1 min, 6–25% in 100 min, 25–50% in 15 min) at a flow rate of 350 nL/min. Eluted peptide ions were analyzed using a data-dependent acquisition (DDA) method with resolution settings of 120,000 and 15,000 (at m/z 200) for MS1 and MS2 scans, respectively. DDA-selected peptides were fragmented using stepped high energy collisional dissociation (27, 32, and 37%).
(§4) The data of AP-MS were analyzed as a previously described method with minor modifications. Briefly, the raw MS files were searched with MaxQuant software (version 1.6.1.1, www.maxquant.org)[56] against the UniProt human protein database (www.uniprot.org) concatenated with common contaminants and the decoy database. The mass tolerance for precursor ions was set to 20 ppm and 4.5 ppm for the first and main search, respectively. The cysteine carbamidomethylation was set as fixed modification and methionine oxidation and N-terminal acetylation as variable modifications. Enzyme specificity was set to trypsin and a maximum missed cleavage was set as 2. The 1% false discovery rate (FDR) at both peptide and protein levels was applied for the analysis. Relative protein quantification was based on the label-free quantification incorporated in the MaxQuant software. The iBAQ intensity of proteins was obtained for the control and experimental samples. The missing iBAQ intensity was replaced by a random number, which was calculated from a normal distribution with a width of 0.3 and a downshift of 1.8 defined by Perseus software (version 1.6.5.0). The P-value was calculated by performing two-sample Student’s t-test. […]

[3] = target: T2, proteins displaced from immobilized biotin-Cmpd 1 pulldowns (U2OS cell lysate) (Homo sapiens, UniProt Q04837); assay: as above; assay type: binding; conditions: GN=SSBP1 (Q04837)
T2 construct: endogenous in cells; host or cells: U2OS
Protocol: as §1, §2, §3, §4

[4] = target: T3, proteins displaced from immobilized biotin-Cmpd 1 pulldowns (U2OS cell lysate) (Homo sapiens, UniProt Q6PK04); assay: as above; assay type: binding; conditions: GN=CCDC137 (Q6PK04)
T3 construct: endogenous in cells; host or cells: U2OS
Protocol: as §1, §2, §3, §4

[5] = target: T4, proteins displaced from immobilized biotin-Cmpd 1 pulldowns (U2OS cell lysate) (Homo sapiens, UniProt O75223); assay: as above; assay type: binding; conditions: GN=GGCT (O75223)
T4 construct: endogenous in cells; host or cells: U2OS
Protocol: as §1, §2, §3, §4

[6] = target: T5, proteins displaced from immobilized biotin-Cmpd 1 pulldowns (U2OS cell lysate) (Homo sapiens, UniProt P62306); assay: as above; assay type: binding; conditions: GN=SNRPF (P62306)
T5 construct: endogenous in cells; host or cells: U2OS
Protocol: as §1, §2, §3, §4

[7] = target: T6, proteins displaced from immobilized biotin-Cmpd 1 pulldowns (U2OS cell lysate) (Homo sapiens, UniProt P13639); assay: as above; assay type: binding; conditions: GN=EEF2 (P13639)
T6 construct: endogenous in cells; host or cells: U2OS
Protocol: as §1, §2, §3, §4

[8] = target: T7, proteins displaced from immobilized biotin-Cmpd 1 pulldowns (U2OS cell lysate) (Homo sapiens, UniProt P61313); assay: as above; assay type: binding; conditions: GN=RPL15 (P61313)
T7 construct: endogenous in cells; host or cells: U2OS
Protocol: as §1, §2, §3, §4

[9] = target: T8, proteins displaced from immobilized biotin-Cmpd 1 pulldowns (U2OS cell lysate) (Homo sapiens, UniProt Q15366); assay: as above; assay type: binding; conditions: GN=PCBP2 (Q15366)
T8 construct: endogenous in cells; host or cells: U2OS
Protocol: as §1, §2, §3, §4

[10] = target: T9, proteins displaced from immobilized biotin-Cmpd 1 pulldowns (U2OS cell lysate) (Homo sapiens, UniProt O15213); assay: as above; assay type: binding; conditions: GN=WDR46 (O15213)
T9 construct: endogenous in cells; host or cells: U2OS
Protocol: as §1, §2, §3, §4

T2 sequence (Q04837 17-148): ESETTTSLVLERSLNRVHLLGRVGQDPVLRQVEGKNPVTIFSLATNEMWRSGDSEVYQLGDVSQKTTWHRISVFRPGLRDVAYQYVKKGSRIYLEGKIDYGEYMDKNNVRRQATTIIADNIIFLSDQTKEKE
T1 sequence (P35606 whole entry): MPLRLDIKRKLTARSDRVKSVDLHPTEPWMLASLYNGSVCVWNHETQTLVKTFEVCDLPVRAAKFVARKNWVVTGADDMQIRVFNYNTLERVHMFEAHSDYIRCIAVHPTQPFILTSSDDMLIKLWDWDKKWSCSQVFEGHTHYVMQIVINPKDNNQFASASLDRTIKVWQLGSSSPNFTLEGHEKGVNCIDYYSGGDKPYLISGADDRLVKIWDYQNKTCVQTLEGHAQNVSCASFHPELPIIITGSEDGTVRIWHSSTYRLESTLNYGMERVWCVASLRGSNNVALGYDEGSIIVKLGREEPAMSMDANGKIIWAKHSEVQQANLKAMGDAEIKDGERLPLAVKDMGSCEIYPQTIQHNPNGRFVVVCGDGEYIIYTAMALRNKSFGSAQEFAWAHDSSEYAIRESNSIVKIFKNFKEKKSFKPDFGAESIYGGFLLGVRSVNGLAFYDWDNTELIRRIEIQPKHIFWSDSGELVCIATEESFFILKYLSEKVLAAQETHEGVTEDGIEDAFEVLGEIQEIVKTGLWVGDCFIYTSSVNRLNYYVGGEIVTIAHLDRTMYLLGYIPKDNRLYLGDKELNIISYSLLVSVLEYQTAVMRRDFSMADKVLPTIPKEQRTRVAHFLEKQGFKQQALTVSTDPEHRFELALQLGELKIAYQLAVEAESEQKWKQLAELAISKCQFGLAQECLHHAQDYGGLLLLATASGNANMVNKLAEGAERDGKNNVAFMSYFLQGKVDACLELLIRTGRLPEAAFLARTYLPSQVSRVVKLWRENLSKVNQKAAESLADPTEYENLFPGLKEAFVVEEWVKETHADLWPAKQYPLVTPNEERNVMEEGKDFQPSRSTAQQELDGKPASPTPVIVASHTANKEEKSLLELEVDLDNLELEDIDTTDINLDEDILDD
T3 sequence (Q6PK04 whole entry): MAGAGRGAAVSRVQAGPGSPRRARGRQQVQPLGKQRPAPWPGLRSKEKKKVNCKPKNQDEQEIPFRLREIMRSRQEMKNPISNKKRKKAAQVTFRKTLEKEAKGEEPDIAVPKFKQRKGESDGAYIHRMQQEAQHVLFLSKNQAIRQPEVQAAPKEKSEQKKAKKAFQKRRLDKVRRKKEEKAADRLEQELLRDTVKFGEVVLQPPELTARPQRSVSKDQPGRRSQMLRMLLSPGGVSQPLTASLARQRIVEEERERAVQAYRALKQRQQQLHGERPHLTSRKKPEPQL
T8 sequence (Q15366 whole entry): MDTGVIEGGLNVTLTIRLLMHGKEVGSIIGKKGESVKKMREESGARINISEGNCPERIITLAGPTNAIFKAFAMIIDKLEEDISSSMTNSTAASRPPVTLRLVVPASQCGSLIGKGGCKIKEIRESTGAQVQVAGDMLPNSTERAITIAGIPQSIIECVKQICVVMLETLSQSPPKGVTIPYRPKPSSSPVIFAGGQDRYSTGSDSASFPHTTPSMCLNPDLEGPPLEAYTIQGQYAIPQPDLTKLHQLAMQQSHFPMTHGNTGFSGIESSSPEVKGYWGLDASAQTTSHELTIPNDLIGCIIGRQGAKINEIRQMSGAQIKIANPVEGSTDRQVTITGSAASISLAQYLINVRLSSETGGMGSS
T4 sequence (O75223 whole entry): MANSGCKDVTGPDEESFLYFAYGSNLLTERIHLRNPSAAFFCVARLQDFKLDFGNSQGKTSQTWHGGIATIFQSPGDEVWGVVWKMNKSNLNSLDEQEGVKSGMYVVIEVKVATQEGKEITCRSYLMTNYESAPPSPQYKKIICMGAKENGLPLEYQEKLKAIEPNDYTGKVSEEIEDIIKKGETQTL
T9 sequence (O15213 whole entry): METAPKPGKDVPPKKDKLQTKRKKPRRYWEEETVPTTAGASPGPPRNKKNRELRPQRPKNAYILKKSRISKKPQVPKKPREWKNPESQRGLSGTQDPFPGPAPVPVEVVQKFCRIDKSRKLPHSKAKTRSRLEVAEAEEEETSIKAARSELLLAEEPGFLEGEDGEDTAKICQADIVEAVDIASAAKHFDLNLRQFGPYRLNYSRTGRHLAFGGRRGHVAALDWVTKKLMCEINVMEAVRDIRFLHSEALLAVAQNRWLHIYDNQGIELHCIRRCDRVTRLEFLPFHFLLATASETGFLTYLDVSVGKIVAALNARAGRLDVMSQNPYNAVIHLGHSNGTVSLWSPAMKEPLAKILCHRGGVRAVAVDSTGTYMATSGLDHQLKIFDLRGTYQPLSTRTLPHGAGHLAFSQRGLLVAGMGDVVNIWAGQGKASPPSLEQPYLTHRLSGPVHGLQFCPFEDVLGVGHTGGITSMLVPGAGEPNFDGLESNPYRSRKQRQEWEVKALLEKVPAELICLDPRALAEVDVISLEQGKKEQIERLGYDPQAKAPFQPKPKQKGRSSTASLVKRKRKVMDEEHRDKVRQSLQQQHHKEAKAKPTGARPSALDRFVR
T5 sequence (P62306 whole entry): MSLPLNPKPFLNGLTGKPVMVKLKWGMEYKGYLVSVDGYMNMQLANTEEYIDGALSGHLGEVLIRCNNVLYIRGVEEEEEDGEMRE

For `Cn1c2c(c(=N)c3c1CCC3)CCC2` [Compound 1, 4-methyl-2,3,4,5,6,7-hexahydrodicyclopenta[b,e]pyridin-8(1H)-imine], the Difference ([1]; GN=GEMIN2 (O14893), Cmpd minus DMSO, -LOG(P-value) 2.68522) was -5.244, the “log2 FC (Cmpd 1/DMSO), GEMIN2” value ([1]; biotin-Cmpd 1 pulldown, competition with 200 μM compound 1 relative to DMSO, U2OS lysate) was −5.2 and the Difference ([2]; Cmpd minus DMSO, -LOG(P-value) 1.0232) was 1.032. The “iBAQ Cmpd” value ([2]; replicates 1-3) was 16.3801 and 15.3301 and 15.6123, the Difference ([3]; Cmpd minus DMSO, -LOG(P-value) 1.29916) was 1.094 and the “iBAQ Cmpd” value ([3]; replicates 1-3) was 21.1032 and 19.9004 and 20.5342. The Difference ([4]; Cmpd minus DMSO, -LOG(P-value) 1.1923) was 2.593, the “iBAQ Cmpd” value ([4]; replicates 1-3) was 19.0065 and 18.1463 and 18.0423 and the Difference ([5]; Cmpd minus DMSO, -LOG(P-value) 0.708043) was -1.888. The “iBAQ Cmpd” value ([5]; replicates 1-3) was 19.1406 and 20.1765 and 18.5823, the Difference ([6]; Cmpd minus DMSO, -LOG(P-value) 2.38454) was -6.902 and the “iBAQ Cmpd” value ([6]; replicates 1-3) was 16.7845 and 14.607 and 12.7996. For the same compound, the Difference ([7]; Cmpd minus DMSO, -LOG(P-value) 1.71036) was -0.7791, the “iBAQ Cmpd” value ([7]; replicates 1-3) was 17.772 and 17.7165 and 17.939 and the Difference ([8]; Cmpd minus DMSO, -LOG(P-value) 0.777225) was -0.7361. For the same compound, the “iBAQ Cmpd” value ([8]; replicates 1-3) was 21.3956 and 22.1107 and 21.8582, the Difference ([9]; Cmpd minus DMSO, -LOG(P-value) 0.939549) was -2.733 and the “iBAQ Cmpd” value ([9]; replicates 1-3) was 15.8606 and 15.1154 and 18.8903. The Difference ([10]; Cmpd minus DMSO, -LOG(P-value) 1.25579) was -1.697 and the “iBAQ Cmpd” value ([10]; replicates 1-3) was 17.4002 and 17.0091 and 16.4289.
